Measurements from US20160220569A1, “CDK4/6 Inhibitor Dosage Formulations For The Protection Of Hematopoietic Stem And Progenitor Cells During Chemotherapy” (G1 Therapeutics, Inc., priority 2015, published 2016).
Read-outs that look alike come from different tables or passages of the source.

Test: 14-day oral gavage toxicokinetic study in rats
Type: in vivo
Settings: male, rat, plasma, po; for concentration at 8 h / concentration at 12 h / concentration at 24 h / concentration at […] / concentration at 0.5 h / concentration at 1 h / concentration at 2 h / concentration at 4 h: rats; for half-life: read-out: t½ (converted)
Experimental: Plasma was obtained from blood samples collected from rats in a composite sampling scheme, with 3 samples collected per sex, per dose, at each target collection time, as illustrated in Table 21 to Table 25. Samples were collected from the vehicle control group on Day 1 and Day 14 at 3 hour after administration. […] Blood samples were collected in tubes containing K3EDTA as an anticoagulant and placed on ice until processed to plasma via centrifugation. Samples were stored frozen at −80° C. until shipment to the bioanalytical laboratory for analysis.
The following parameters were determined:
Cmax: Maximum observed plasma concentration (ng/mL).
A value of 0 ng/mL was assigned to all values below the lower limit of quantitation (BLQ, <10.0 ng/mL).
AUC(0-inf): Area under the plasma concentration vs. time curve extrapolated from 0 to infinity (ng*h/mL), calculated as AUC(0-t)+AUC(t-inf) where AUC(t-inf) is calculated as last measurable concentration (CLast) divided by ke, where ke is the elimination rate constant determined by linear regression of the last three analytically measured points on the log plasma concentration vs. time curve. The selection criteria of the data points for inclusion in the calculation of ke required that at least three data points representing the terminal phase (after Tmax) were regressed and that R2≧0.850 when rounded.
CL: Clearance (L/h/kg), calculated as the dose divided by AUC(0-t).
Vd: Volume of distribution (L/kg), calculated as dose divided by the product of ke and AUC(0-inf).
Vdss: Steady state volume of distribution (L/kg), calculated as clearance […] mean residence time, where mean residence time is calculated as the area under the first moment curve divided by AUC(0-t).
t½: Elimination half-life (h), calculated as ln(2)/ke, where ke is the elimination rate constant determined by linear regression. Half-life was defined as not determined if regression criteria (specified in AUC(0-inf) above) were not met.
Cmax/Dose: Normalized Cmax, calculated as Cmax divided by total dose.
AUC/Dose: Normalized AUC, calculated as AUC(0-t) divided by total dose.
ii. Statistical Analysis Mean and standard deviation (SD) were calculated in Watson. Values of BLQ were assigned a value of 0 ng/mL for mean calculations. Concentration values and derived TK parameters were reported to three significant figures.

[1] = 15 mg/kg, oral 15 mg/kg, Study Day 1, Male
[2] = 15 mg/kg, oral 15 mg/kg, Study Day 14, Male
[3] = 30 mg/kg, oral 30 mg/kg, Study Day 1, Male

CN1CCN(c2ccc(Nc3ncc4cc5n(c4n3)C3(CCCCC3)CNC5=O)nc2)CC1 [Compound 1, 2′-((5-(4-methylpiperazin-1-yl)pyridin-2-yl)amino)-7′,8′-dihydro-6′H-spiro[cyclohexane-1,9′-pyrazino[1′,2′:1,5]pyrrolo[2,3-d]pyrimidin]-6′-one] gave a concentration at 8 h (15 mg/kg, Mean Compound 1 Plasma Concentration, oral 15 mg/kg, Day 1, 8 h, Male) of 1020 ng/mL, a concentration at 12 h (15 mg/kg, Mean Compound 1 Plasma Concentration, oral 15 mg/kg, Day 1, 12 h, Male) of 618 ng/mL and a concentration at 24 h (15 mg/kg, Mean Compound 1 Plasma Concentration, oral 15 mg/kg, Day 1, 24 h, Male) of 84.5 ng/mL. It also gave a concentration at […] (15 mg/kg, Mean Compound 1 Plasma Concentration, oral 15 mg/kg, Day 1, […], Male) of 35.6 ng/mL, a concentration at 0.5 h (15 mg/kg, Mean Compound 1 Plasma Concentration, oral 15 mg/kg, Day 14, 0.5 h, Male) of 740 ng/mL and a concentration at 1 h (15 mg/kg, Mean Compound 1 Plasma Concentration, oral 15 mg/kg, Day 14, 1 h, Male) of 842 ng/mL. For the same compound, the concentration at 2 h (15 mg/kg, Mean Compound 1 Plasma Concentration, oral 15 mg/kg, Day 14, 2 h, Male) was 1320 ng/mL, the concentration at 4 h (15 mg/kg, Mean Compound 1 Plasma Concentration, oral 15 mg/kg, Day 14, 4 h, Male) was 1080 ng/mL and the concentration at 8 h (15 mg/kg, Mean Compound 1 Plasma Concentration, oral 15 mg/kg, Day 14, 8 h, Male) was 1170 ng/mL. For the same compound, the concentration at 12 h (15 mg/kg, Mean Compound 1 Plasma Concentration, oral 15 mg/kg, Day 14, 12 h, Male) was 626 ng/mL, the concentration at 24 h (15 mg/kg, Mean Compound 1 Plasma Concentration, oral 15 mg/kg, Day 14, 24 h, Male) was 60.6 ng/mL and the concentration at […] (15 mg/kg, Mean Compound 1 Plasma Concentration, oral 15 mg/kg, Day 14, […], Male) was 107 ng/mL. It also gave an AUC(0-inf) [1] of 16000 ng·h/mL, an AUC(0-t) [1] of 15500 ng·h/mL and a Cmax [1] of 1160 ng/mL. The Tmax [1] was 4 h, the half-life [1] was 4.39 h and the AUC(0-t) [2] was 16300 ng·h/mL. For the same compound, the Cmax [2] was 1320 ng/mL, the Tmax [2] was 2 h and the half-life [2] was 3.7 h. It also gave a concentration at 0.5 h (30 mg/kg, Individual Compound 1 Plasma Concentration, daily oral 30 mg/kg, Day 1, Male, 0.5 h) of 1450 ng/mL, a concentration at 1 h (30 mg/kg, Individual Compound 1 Plasma Concentration, daily oral 30 mg/kg, Day 1, Male, 1 h) of 1620 ng/mL and a concentration at 2 h (30 mg/kg, Individual Compound 1 Plasma Concentration, daily oral 30 mg/kg, Day 1, Male, 2 h) of 1810 ng/mL. The concentration at 4 h (30 mg/kg, Individual Compound 1 Plasma Concentration, daily oral 30 mg/kg, Day 1, Male, 4 h) was 2660 ng/mL, the concentration at 8 h (30 mg/kg, Individual Compound 1 Plasma Concentration, daily oral 30 mg/kg, Day 1, Male, 8 h) was 2000 ng/mL and the concentration at 12 h (30 mg/kg, Individual Compound 1 Plasma Concentration, daily oral 30 mg/kg, Day 1, Male, 12 h) was 1930 ng/mL. It also gave a concentration at 24 h (30 mg/kg, Individual Compound 1 Plasma Concentration, daily oral 30 mg/kg, Day 1, Male, 24 h) of 280 ng/mL, a concentration at 0.5 h (30 mg/kg, Individual Compound 1 Plasma Concentration, daily oral 30 mg/kg, Day 14, Male, 0.5 h) of 977 ng/mL and a concentration at 2 h (30 mg/kg, Individual Compound 1 Plasma Concentration, daily oral 30 mg/kg, Day 14, Male, 2 h) of 1630 ng/mL. For the same compound, the concentration at 4 h (30 mg/kg, Individual Compound 1 Plasma Concentration, daily oral 30 mg/kg, Day 14, Male, 4 h) was 2080 ng/mL, the concentration at 8 h (30 mg/kg, Individual Compound 1 Plasma Concentration, daily oral 30 mg/kg, Day 14, Male, 8 h) was 1750 ng/mL and the concentration at 12 h (30 mg/kg, Individual Compound 1 Plasma Concentration, daily oral 30 mg/kg, Day 14, Male, 12 h) was 1230 ng/mL. For the same compound, the concentration at 24 h (30 mg/kg, Individual Compound 1 Plasma Concentration, daily oral 30 mg/kg, Day 14, Male, 24 h) was 208 ng/mL, the concentration at […] (30 mg/kg, Individual Compound 1 Plasma Concentration, daily oral 30 mg/kg, Day 14, Male, […]) was 197 ng/mL and the concentration at 0.5 h (30 mg/kg, Mean Compound 1 Plasma Concentration, oral 30 mg/kg, Day 1, 0.5 h, Male) was 1420 ng/mL. For the same compound, the concentration at 1 h (30 mg/kg, Mean Compound 1 Plasma Concentration, oral 30 mg/kg, Day 1, 1 h, Male) was 1400 ng/mL, the concentration at 2 h (30 mg/kg, Mean Compound 1 Plasma Concentration, oral 30 mg/kg, Day 1, 2 h, Male) was 1620 ng/mL and the concentration at 4 h (30 mg/kg, Mean Compound 1 Plasma Concentration, oral 30 mg/kg, Day 1, 4 h, Male) was 2240 ng/mL. The concentration at 8 h (30 mg/kg, Mean Compound 1 Plasma Concentration, oral 30 mg/kg, Day 1, 8 h, Male) was 1860 ng/mL, the concentration at 24 h (30 mg/kg, Mean Compound 1 Plasma Concentration, oral 30 mg/kg, Day 1, 24 h, Male) was 234 ng/mL and the concentration at […] (30 mg/kg, Mean Compound 1 Plasma Concentration, oral 30 mg/kg, Day 1, […], Male) was 208 ng/mL. The concentration at 0.5 h (30 mg/kg, Mean Compound 1 Plasma Concentration, oral 30 mg/kg, Day 14, 0.5 h, Male) was 993 ng/mL, the concentration at 1 h (30 mg/kg, Mean Compound 1 Plasma Concentration, oral 30 mg/kg, Day 14, 1 h, Male) was 1530 ng/mL and the concentration at 2 h (30 mg/kg, Mean Compound 1 Plasma Concentration, oral 30 mg/kg, Day 14, 2 h, Male) was 1590 ng/mL. The concentration at 4 h (30 mg/kg, Mean Compound 1 Plasma Concentration, oral 30 mg/kg, Day 14, 4 h, Male) was 2030 ng/mL, the concentration at 8 h (30 mg/kg, Mean Compound 1 Plasma Concentration, oral 30 mg/kg, Day 14, 8 h, Male) was 1880 ng/mL and the concentration at 12 h (30 mg/kg, Mean Compound 1 Plasma Concentration, oral 30 mg/kg, Day 14, 12 h, Male) was 1300 ng/mL. For the same compound, the concentration at […] (30 mg/kg, Mean Compound 1 Plasma Concentration, oral 30 mg/kg, Day 14, […], Male) was 207 ng/mL, the AUC(0-inf) [3] was 34700 ng·h/mL and the AUC(0-t) [3] was 33000 ng·h/mL. For the same compound, the Cmax [3] was 2240 ng/mL, the Tmax [3] was 4 h and the half-life [3] was 5.05 h. It also gave an AUC(0-inf) (30 mg/kg, oral 30 mg/kg, Study Day 14, Male) of 30700 ng·h/mL.
